How the values were obtained:
[1] = test system: tonic extensor seizure; experiment: maximal electroshock test (MES); type: in vivo, mouse (albino male CRS-CD1); conditions: PO, mouse, 4 hr, read-out: % Block (MES Test, mouse)
Description: The compounds of formula (I) are particularly useful as anticonvulsant agents in mammals including humans. The anticonvulsant activity of the subject compounds was determined using a standard "maximal electroshock test" (MES). In this test, activity is indicated by a block of the […] extensor seizure caused by application of an electric shock to mice via corneal electrodes, as described by Swinyard et al. in J. Pharmacol. Expt. Ther. 1952, 106, 319, and recorded as % block. A more recent description of current anticonvulsant drug screening is given by Swinyard in Epilepsia 1978, 19, 409. The anticonvulsant activity of the compounds of this invention tested according to the Swinyard 1952 method is shown in the following Table I.
In the test, albino male CRS-CD1 mice weighing between 18-25 g were used in all experiments (obtained from Charles River). They were allowed food and water ad libitum and were used only once. The electroshock apparatus and the corneal electrodes were purchased from Wahlquist Instrument Company, Salt Lake City, Utah.
Maximal electroshock seizures were induced by the delivery of a 60 Hertz (Hz) current of 50 milliamps (mA) intensity to the mouse through corneal electrodes for 0.2 seconds as originally described by Swinyard et al. (1952). This stimulus intensity is approximately 4 to 6 times the current producing 100% tonic extensor convulsions. During the validation of the MES test, the duration of the various seizure components following maximal electroshock were measured as follows: hindleg tonic flexion was measured from the time of the application of the stimulus to the time of onset of hindleg tonic extension (i.e. when the hindlegs deviate by greater than an angle of 90° from the torso), hindleg tonic extensor was measured from the time of extensor thrust to the onset of generalized clonus, and terminal clonus was measured from the beginning to the end of bilateral rhythmic clonic jerking. Mortality was also recorded. The duration of each seizure component agreed well with the values previously reported by Tedeschi et al. in J. Pharmacol. Expt. Ther. 1955, 116, 107. The corneal electrodes were concave so that saline could be applied to the electrodes to reduce mortality. If this procedure is followed, mortality should always be less than 40% in control mice. Thus, at an electroshock stimulus of 60 Hz, 50 mA and 0.2 seconds duration, the order of convulsive components and the percentage of control animals displaying the behaviors should be as follows: tonic flexion (100%), tonic extension (100%) and clonus (100%) with less than 40% mortality.
For testing compounds, the abolition of the tonic extensor component was the endpoint. Animals were dosed orally (PO) with either vehicle or test drug and at a specified time were given a maximal electric shock through corneal electrodes blotted with saline (as described above). A minimum of 10 animals were used per group and the percentage of animals in the group without tonic hindlimb extension recorded. Determination of ED50 values (that dose of drug inhibiting 50% of the tonic extensor seizures) is shown below in Table I.

[2] = rat diuresis study; type: in vivo, rat (male Wistar); conditions: average of five animals; for Water Intake: control 15.0; for Urine Output: control 17.6
Excerpt: Evidence for the inhibition of carbonic anhydrase by compounds of the formula (I) can also be obtained by a diuresis study, such as described by A. Weiner in Goodman and Gilman's The Pharmacological Basis of Therapeutics, 8th ed.; Goodman Gilman, A.; Rall, T. W.; Nies, A. S.; Taylor, P., Eds.; Pergamon Press: New York, 1990; pp 716-718. An increase in urine akalinity accompanied with an increase in water intake and urine output provides an indirect indication of carbonic anhydrase inhibition activity. Male Wistar rats having a weight of 250-300 g were dosed orally (PO) and housed in cages that allowed for the quantitative measure of fluid intake and urine output. Water intake and urine output were measured at 24 hours versus control, whereas urine pH, obtained via pH meter, was measured at 4 and 24 hours versus control. The results of this study, which are the average of five animals, are reported below in Table III. […] Such data is also an indication of the usefulness of the compounds of formula (I) as diuretics in the treatment of hypertension, congestive heart failure and other types of edema. The determination of suitable dosages for such compounds for the treatment of hypertension and congestive heart failure and other types of edema is within the skill of the art.

[3] = test system: Total Acid Output; experiment: pylorus-ligated rat test, gastric antisecretory activity; type: in vivo, rat (male Charles River Sprague-Dawley derived); conditions: IP, 200 mg/kg
Description: The gastric antisecretory activity of the compounds shown in Table II was determined by the pylorus-ligated rat test described by Shay et al. in Gastroenterol. 1954, 26, 906. In this method, male Charles River Sprague-Dawley derived rats weighing 150-300 grams were deprived of food but not water for 18-24 hours prior to use. Water was withheld during the experiment, however. The rats were weighed, lightly anesthetized with ether and the pylorus ligated according to the method of Shay et al., supra. The treatment or vehicle control was then administered intraperitoneally (IP) or orally (PO). When administered by the IP route, the administration was done 30 minutes before ligation. When administered by the PO route, the administration was done prior to ligation (about 1/2 to 3 hours before). Rats were housed two per cage and sacrificed with carbon dioxide 3 hours after ligation. Their stomachs were removed, rinsed, and contents emptied into a graduated centrifuge tube. The tubes were centrifuged, the volume of gastric juice was recorded, and any samples obviously contaminated by feces, food or blood were eliminated. A 1 mL aliquot of gastric juice was titrated with 0.1N NaOH to a pH of 7.0-7.4. The volume of gastric juice secreted, the acid concentration, and the product of the volume times the concentration, i.e. the total amount of acid secreted, were measured. The total acid output was calculated by multiplying the volume of gastric juices collected times the hydrogen ion concentration (amount of NaOH added to a sample to reach a pH of 7.0-7.4) and dividing that value by 10. The mean value of the total acid output for a control group of rats was then subtracted from the mean value of the total acid output for the group of rats tested at the same dose. That value was then divided by the mean value of total acid output for the control group and the resulting number was multiplied by 100 to provide a Percent Inhibition value, which values are reported in Table II. The […] was determined statistically as the dose at which a 50% inhibition would be realized.

Work on `CC1(C)O[C@@H]2[C@H]3OS(=O)(=O)O[C@H]3CO[C@]2(COS(N)(=O)=O)O1` [Example 2, 2,3-O-(1-Methylethylidene)-4,5-O-sulfonyl-β-L-fructopyranose Sulfamate] yielded a responders at 75 mg/kg [1] of 80%.

With `CNS(=O)(=O)OC[C@@]12OC[C@H]3OS(=O)(=O)O[C@H]3[C@@H]1OC(C)(C)O2` [Example 3, 2,3-O-(1-Methylethylidene)-4,5-O-sulfonyl-β-D-fructopyranose Methylsulfamate] the “Urine pH” value ([2]; 2.7 mg/kg PO, 4 hours, control 6.98) was 9.02, the “Urine pH” value ([2]; 2.7 mg/kg PO, 24 hours, control 6.43) was 6.78 and the “Water Intake” value ([2]; 2.7 mg/kg PO, 24 hours) was 23.6 mL. The “Urine Output” value ([2]; 2.7 mg/kg PO, 24 hours) was 28.8 mL and the responders at 10 mg/kg [1] was 100%.

Compound `CCCCNS(=O)(=O)OC[C@@]12OC[C@H]3OS(=O)(=O)O[C@H]3[C@@H]1OC(C)(C)O2` [Example 4, 2,3-O-(1-Methylethylidene)-4,5-O-sulfonyl-β-D-fructopyranose Butylsulfamate] has a responders at 35 mg/kg [1] of 100%.

With `CCNS(=O)(=O)OC[C@@]12OC[C@H]3OS(=O)(=O)O[C@H]3[C@@H]1OC(C)(C)O2` [Example 5, 2,3-O-(1-Methylethylidene)-4,5-O-sulfonyl-β-D-fructopyranose Ethylsulfamate] the “Urine pH” value ([2]; 1.2 mg/kg PO, 4 hours, control 6.98) was 9.03, the “Urine pH” value ([2]; 1.2 mg/kg PO, 24 hours, control 6.43) was 6.41 and the “Water Intake” value ([2]; 1.2 mg/kg PO, 24 hours) was 15.8 mL. For the same compound, the “Urine Output” value ([2]; 1.2 mg/kg PO, 24 hours) was 19.9 mL and the responders at 10 mg/kg [1] was 100%.

In the case of `CCCCCCCCNS(=O)(=O)OC[C@@]12OC[C@H]3OS(=O)(=O)O[C@H]3[C@@H]1OC(C)(C)O2` [Example 6, 2,3-O-(1-Methylethylidene)-4,5-O-sulfonyl-β-D-fructopyranose Octylsulfamate], the responders at 75 mg/kg [1] was 100%.

`C=CCNS(=O)(=O)OC[C@@]12OC[C@H]3OS(=O)(=O)O[C@H]3[C@@H]1OC(C)(C)O2` [Example 7, 2,3-O-(1-Methylethylidene)-4,5-O-sulfonyl-β-D-fructopyranose 2-Propenylsulfamate] gave a responders at 10 mg/kg [1] of 70%.

For `CC1(C)O[C@H]2[C@@H]3OS(=O)(=O)O[C@@H]3CO[C@@]2(COS(=O)(=O)NCc2ccccc2)O1` [Example 8, 2,3-O-(1-Methylethylidene)-4,5-O-sulfonyl-β-D-fructopyranose Phenylmethylsulfamate], the responders at 75 mg/kg [1] was 100%.

In the case of `CC1(C)O[C@H]2[C@@H]3OS(=O)(=O)O[C@@H]3CO[C@@]2(COS(=O)(=O)NC2CCC2)O1` [Example 10, 2,3-O-(1-Methylethylidene)-4,5-O-sulfonyl-β-D-fructopyranose Cyclobutylsulfamate], the responders at 10 mg/kg [1] was 90%.

In the case of `CC1(C)O[C@H]2[C@@H]3OS(=O)(=O)O[C@@H]3CO[C@@]2(COS(=O)(=O)NC2CCCCCCC2)O1` [Example 11, 2,3-O-(1-Methylethylidene)-4,5-O-sulfonyl-β-D-fructopyranose Cyclooctylsulfamate], the “Percent Inhibition of Total Acid Output” value [3] was 50% and the responders at 75 mg/kg [1] was 30%.

Work on `CC1(C)O[C@H]2[C@@H]3OS(=O)(=O)O[C@@H]3CO[C@@]2(COS(=O)(=O)NCC(F)(F)F)O1` [Example 12, 2,3-O-(1-Methylethylidene)-4,5-O-sulfonyl-β-D-fructopyranose (2,2,2-Trifluoroethyl)sulfamate] yielded a responders at 10 mg/kg [1] of 40%.

In the case of `CN(C)S(=O)(=O)OC[C@@]12OC[C@H]3OS(=O)(=O)O[C@H]3[C@@H]1OC(C)(C)O2` [Example 13, 2,3-O-(1-Methylethylidene)-4,5-O-sulfonyl-β-D-fructopyranose Dimethylsulfamate], the “Urine pH” value ([2]; 2.1 mg/kg PO, 4 hours, control 6.98) was 8.93, the “Urine pH” value ([2]; 2.1 mg/kg PO, 24 hours, control 6.43) was 6.81 and the “Water Intake” value ([2]; 2.1 mg/kg PO, 24 hours) was 21 mL. The “Urine Output” value ([2]; 2.1 mg/kg PO, 24 hours) was 23.2 mL and the responders at 10 mg/kg [1] was 70%.

With `CCN(CC)S(=O)(=O)OC[C@@]12OC[C@H]3OS(=O)(=O)O[C@H]3[C@@H]1OC(C)(C)O2` [Example 14, 2,3-O-(1-Methylethylidene)-4,5-O-sulfonyl-β-D-fructopyranose Diethylsulfamate] the responders at 10 mg/kg [1] was 10%.

`CC1(C)O[C@H]2[C@@H]3O[S@@](=O)O[C@@H]3CO[C@@]2(COS(N)(=O)=O)O1` [Example 16, (S)-2,3-O-(1-Methylethylidene)-4,5 -O-sulfinyl-β-D-fructopyranose Sulfamate] gave a responders at 75 mg/kg [1] of 40%.

Compound `CC1(C)O[C@H]2[C@@H]3O[S@](=O)O[C@@H]3CO[C@@]2(COS(N)(=O)=O)O1` [Example 17, (R)-2,3-O-(1-Methylethylidene)-4,5-O-sulfinyl-β-D-fructopyranose Sulfamate] has a responders at 35 mg/kg [1] of 90%.

`CCC1(CC)O[C@H]2[C@@H]3OS(=O)(=O)O[C@@H]3CO[C@@]2(COS(N)(=O)=O)O1` [Example 18, 2,3-O-(1-Ethylpropylidene)-4,5-O-sulfonyl-β-D-fructopyranose Sulfamate] showed a responders at 75 mg/kg [1] of 100%.

In the case of `Cc1ccc(S(=O)(=O)N=S2O[C@@H]3[C@@H](CO[C@@]4(COS(N)(=O)=O)OC(C)(C)O[C@@H]34)O2)cc1` (stereo partly drawn) [Example 19, 2,3-O-(1-Methylethylidene)-4,5-O-[N-(4-methylbenzenesulfonyl)imidosulfinyl]-β-D-fructopyranose Sulfamate], the responders at 300 mg/kg [1] was 80%.

`Cc1ccc(S(=O)(=O)N=S2(=O)O[C@@H]3[C@@H](CO[C@@]4(COS(N)(=O)=O)OC(C)(C)O[C@@H]34)O2)cc1` (stereo partly drawn) [Example 20, 2,3-O-(1-Methylethylidene)-4,5-O-[N-(4-methylbenzenesulfonyl)imidosulfonyl]-β-D-fructopyranose Sulfamate] showed a responders at 300 mg/kg [1] of 75%.

With `NS(=O)(=O)OC[C@@]12OC[C@H]3OS(=O)(=O)O[C@H]3[C@@H]1OC1(CCCCC1)O2` [Example 21, 2,3-O-(Cyclohexylidene)-4,5-O-sulfonyl-β-D-fructopyranose Sulfamate] the “Percent Inhibition of Total Acid Output” value [3] was 27%.

— patent US5242942A, “Anticonvulsant fructopyranose cyclic sulfites and sulfates” (McNeilab, Inc., priority 1992, dated 1993)
